Results from US12370237B2, “Lipopeptides for use in treating liver diseases and cardiovascular diseases” (RUPRECHT-KARLS-UNIVERSITAET HEIDELBERG, priority 2012, dated 2025).

Experiments:
[1] = biological target: T1, hNTCP (Homo sapiens, UniProt Q14973); test: MyrB^atto binding competition assay by FACS in HuH7^hNTCP cells; conditions: 500 μM
T1 construct: host or cells: HuH7
T1 sequence (Q14973 1-349): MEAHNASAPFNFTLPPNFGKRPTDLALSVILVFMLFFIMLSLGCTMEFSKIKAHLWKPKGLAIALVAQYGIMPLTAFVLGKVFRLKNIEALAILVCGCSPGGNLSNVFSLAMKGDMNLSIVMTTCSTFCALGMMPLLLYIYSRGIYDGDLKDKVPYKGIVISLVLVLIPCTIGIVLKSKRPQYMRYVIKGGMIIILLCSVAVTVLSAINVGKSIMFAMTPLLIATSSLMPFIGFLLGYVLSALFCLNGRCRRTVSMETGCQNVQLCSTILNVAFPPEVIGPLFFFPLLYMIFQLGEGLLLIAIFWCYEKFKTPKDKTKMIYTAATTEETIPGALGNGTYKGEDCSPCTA
Description: Binding was quantified by FACS analysis.
(§1) Cells were washed (PBS/1% BSA), trypsinized, and suspended in Krebs-Henseleit-Buffer. Flow cytometry was performed on a FACS Canto II (BD Bioscience, Heidelberg, Germany); FlowJo v7.61 software (Treestar, Ashton, USA) was used for analysis. Compensation was performed using BD Compbeats (BD Bioscience, Heidelberg, Germany).

[2] = tested on: HBV; test: HBV infection of differentiated HepaRG and HuH7^hNTCP cells in presence of NTCP substrates (secreted HBeAg); format: cell-based; conditions: for Reduction of HBV infection (HBeAg secretion): 5 μM; for Inhibition of HBV infection as shown by HBeAg secretion: 50 μM and 500 μM
[3] = biological target: T2, ratNTCP-eGFP (Rattus norvegicus, UniProt P26435); test: MyrB^atto binding to HepG2 ratNTCP-eGFP cells (confocal microscopy)
T2 construct: expressed in transfected cells; host or cells: HepG2
T2 sequence (P26435 1-362): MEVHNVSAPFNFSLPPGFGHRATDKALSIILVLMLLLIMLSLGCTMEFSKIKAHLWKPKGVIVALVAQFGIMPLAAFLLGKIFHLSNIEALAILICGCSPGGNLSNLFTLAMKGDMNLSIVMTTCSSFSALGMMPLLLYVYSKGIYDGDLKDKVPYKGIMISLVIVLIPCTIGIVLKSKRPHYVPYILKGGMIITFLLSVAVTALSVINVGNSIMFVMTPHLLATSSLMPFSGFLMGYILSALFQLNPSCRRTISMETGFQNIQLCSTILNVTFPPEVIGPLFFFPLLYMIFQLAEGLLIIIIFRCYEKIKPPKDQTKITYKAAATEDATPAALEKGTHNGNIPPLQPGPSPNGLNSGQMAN
Description: Note the co-localisation of hNTCP/MyrB^atto in microvilli.
Cells were washed again (3×PBS/2% BSA), fixed with PFA, washed with PBS/1 ug/ml Hoechst 3342 and mounted (FluoromountG). NTCP immune staining was achieved after permeabilisation (10 min/RT) with TritonX 100 using a α-SCL10A1/NTCP antibody (Sigma, Germany) diluted 1:750 in PBS/2% BSA (18 h at 4° C.). A polyclonal rabbit antiserum H863 was used for HBcAg-staining, a polyclonal rabbit antiserum for MRP-2 detection, patient-derived serum (M. Roggendorf, Essen) for HδAg. As secondary antibodies goat anti-rabbit or -human, labelled with either AlexaFluor488 or AlexaFluor546 (Invitrogen) was used. Actin staining was performed by the addition of atto633-labelled Phalloidin diluted 1:2000 (ATTO-Tec, Germany) to the second staining step. Images were taken on a Leica DM IRB or Leica SP2 confocal microscope (Leica, Germany), image analysis was performed using ImageJ.
(§2) Taking advantage of the fluorescence of the ratNTCP-eGFP fusion, we confirmed co-localisation of the MyrB/rNtcp-complex in microvilli.

[4] = biological target: T3, mNtcp (Mus musculus, UniProt O08705); test: MyrB^atto binding to HepG2^mNtcp cells (FACS)
T3 construct: expressed in transfected cells; host or cells: HepG2
T3 sequence (O08705 1-362): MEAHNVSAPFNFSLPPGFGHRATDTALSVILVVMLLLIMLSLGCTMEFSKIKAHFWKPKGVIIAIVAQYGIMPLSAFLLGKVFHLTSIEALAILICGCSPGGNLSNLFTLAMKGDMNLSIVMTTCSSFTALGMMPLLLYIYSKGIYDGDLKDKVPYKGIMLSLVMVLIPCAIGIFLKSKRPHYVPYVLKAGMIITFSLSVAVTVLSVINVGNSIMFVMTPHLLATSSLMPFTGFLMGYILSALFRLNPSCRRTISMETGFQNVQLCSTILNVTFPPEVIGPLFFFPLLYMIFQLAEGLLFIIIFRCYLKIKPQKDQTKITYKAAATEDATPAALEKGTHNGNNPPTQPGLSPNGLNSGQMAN
Description: as §1, §2

Compound | Interference with MyrB^atto (preS) binding [1] | Reduction of HBV infection (HBeAg secretion) [2] | Inhibition of HBV infection as shown by HBeAg secretion [2] | Binding to rat NTCP-eGFP-expressing cells [3] | Binding to mNtcp-expressing cells [4]
C[C@H](CCC(=O)NCCS(=O)(=O)O)[C@H]1CC[C@H]2[C@@H]3[C@H](O)C[C@@H]4C[C@H](O)CC[C@]4(C)[C@H]3C[C@H](O)[C@]12C [TC, Taurocholate] | profoundly interfered with preS-binding | – | – | – | –
C[C@H](CCC(=O)NCCS(=O)(=O)O)[C@H]1CC[C@H]2[C@@H]3[C@H](O)C[C@@H]4C[C@H](O)CC[C@]4(C)[C@H]3CC[C@]12C [TCDC, Taurochenodeoxy-Cholate] | profoundly interfered with preS-binding | Marginal reduction | inhibited HBV-infection | – | –
C[C@H](CCC(=O)NCCS(=O)(=O)O)[C@H]1CC[C@H]2[C@@H]3CC[C@@H]4C[C@H](O)CC[C@]4(C)[C@H]3C[C@H](O)[C@]12C [TDC, Taurodeoxycholate] | profoundly interfered with preS-binding | Marginal reduction | inhibited HBV-infection | – | –
MyrB^atto: atto-dye-labeled MyrB (atto488/atto565 NHS-ester coupled to lysine residues) | – | – | – | specific and competable binding | specific and competable binding
